From patent US10487080B2, “Naphthyridines as integrin antagonists” (GlaxoSmithKline Intellectual Property Development Limited, priority 2016, dated 2019)

Assays:
Format in all cases: cell-based
αvβ6 = target: T1, αvβ6 (Homo sapiens, UniProt P06756+P18564); assay: Cell Adhesion Assay αvβ6; conditions: K562-αvβ6 cells, ligand LAP-b1, 2 mM MgCl2; read-out: mean affinity (pIC50) αvβ6 (converted)
T1 construct: expressed in transfected cells; host or cells: K562-αvβ6
Protocol: (§1) The following cell lines are used, with ligands in brackets: K562-αvβ3 (LAP-b1), K562-αvβ5 (Vitronectin), K562-αvβ6 (LAP-b1), K562-αvβ8 (LAP-b1), A549-αvβ1 (LAP-b1). The divalent cation used to facilitate adhesion is 2 mM MgCl2. Adhesion is quantified by cell labelling with the fluorescent dye BCECF-AM (Life Technologies), where cell suspensions at 3×10^6cells/nnL are incubated with 0.33 uL/mL of 30 mM BCECF-AM at 37° C. for 10 minutes, then 50 μL/well are dispensed into the 96-well assay plate. At the assay conclusion cells that adhered are lysed using 50 μL/well of 0.5% Triton X-100 in H2O to release fluorescence. Fluorescence intensity is detected using an Envision® plate reader (Perkin Elmer). For active antagonists in the assay, data is fitted to a 4 parameter logistic equation for IC50 determinations.
(§2) Those of skill in the art will recognise that in vitro binding assays and cell-based assays for functional activity are subject to experimental variability.

αvβ3 = target: T2, αvβ3 (Homo sapiens, UniProt P05106+P06756); assay: Cell Adhesion Assay αvβ3; conditions: K562-αvβ3 cells, ligand LAP-b1, 2 mM MgCl2; read-out: mean affinity (pIC50) αvβ3 (converted)
T2 construct: expressed in transfected cells; host or cells: K562-αvβ3
Protocol: as §1, §2

αvβ5 = target: T3, αvβ5 (Homo sapiens, UniProt P06756+P18084); assay: Cell Adhesion Assay αvβ5; conditions: K562-αvβ5 cells, ligand Vitronectin, 2 mM MgCl2; read-out: mean affinity (pIC50) αvβ5 (converted)
T3 construct: expressed in transfected cells; host or cells: K562-αvβ5
Protocol: as §1, §2

αvβ8 = target: T4, αvβ8 (Homo sapiens, UniProt P06756+P26012); assay: Cell Adhesion Assay αvβ8; conditions: K562-αvβ8 cells, ligand LAP-b1, 2 mM MgCl2; read-out: mean affinity (pIC50) αvβ8 (converted)
T4 construct: expressed in transfected cells; host or cells: K562-αvβ8
Protocol: as §1, §2

αvβ1 = target: T5, αvβ1 (Homo sapiens, UniProt P05556+P06756); assay: Cell Adhesion Assay αvβ1; conditions: A549-αvβ1 cells, ligand LAP-b1, 2 mM MgCl2; read-out: mean affinity (pIC50) αvβ1 (converted)
T5 construct: host or cells: A549-αvβ1
Protocol: as §1, §2

T3 sequence (P06756 31-889 limits assumed): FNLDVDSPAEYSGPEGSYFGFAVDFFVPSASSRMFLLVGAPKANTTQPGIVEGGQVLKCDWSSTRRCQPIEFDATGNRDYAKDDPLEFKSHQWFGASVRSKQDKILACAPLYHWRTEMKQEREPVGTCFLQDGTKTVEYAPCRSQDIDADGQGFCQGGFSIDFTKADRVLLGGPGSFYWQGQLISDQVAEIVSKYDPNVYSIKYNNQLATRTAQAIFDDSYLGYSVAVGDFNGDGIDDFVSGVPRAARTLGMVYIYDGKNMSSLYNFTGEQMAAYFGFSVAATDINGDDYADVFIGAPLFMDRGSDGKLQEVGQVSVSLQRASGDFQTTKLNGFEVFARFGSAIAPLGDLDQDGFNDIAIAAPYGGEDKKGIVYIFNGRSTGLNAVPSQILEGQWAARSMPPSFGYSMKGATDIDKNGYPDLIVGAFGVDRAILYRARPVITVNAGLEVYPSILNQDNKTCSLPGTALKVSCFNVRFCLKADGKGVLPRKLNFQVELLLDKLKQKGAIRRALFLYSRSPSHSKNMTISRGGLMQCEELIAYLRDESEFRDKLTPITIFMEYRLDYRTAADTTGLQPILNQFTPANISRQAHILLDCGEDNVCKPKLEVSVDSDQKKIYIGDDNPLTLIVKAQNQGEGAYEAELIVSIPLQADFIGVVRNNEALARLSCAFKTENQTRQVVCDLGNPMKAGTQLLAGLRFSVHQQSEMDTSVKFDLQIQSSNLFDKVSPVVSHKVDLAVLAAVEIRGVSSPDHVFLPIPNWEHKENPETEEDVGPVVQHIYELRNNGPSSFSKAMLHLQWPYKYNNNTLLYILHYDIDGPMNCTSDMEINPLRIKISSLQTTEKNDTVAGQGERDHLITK
T3 sequence (P06756 891-1048 partner limits assumed): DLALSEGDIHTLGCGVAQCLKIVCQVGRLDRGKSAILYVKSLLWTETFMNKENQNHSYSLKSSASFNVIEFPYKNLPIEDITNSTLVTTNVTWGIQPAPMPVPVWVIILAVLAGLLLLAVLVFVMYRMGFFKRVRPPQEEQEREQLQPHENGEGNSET
T3 sequence (P18084 24-799): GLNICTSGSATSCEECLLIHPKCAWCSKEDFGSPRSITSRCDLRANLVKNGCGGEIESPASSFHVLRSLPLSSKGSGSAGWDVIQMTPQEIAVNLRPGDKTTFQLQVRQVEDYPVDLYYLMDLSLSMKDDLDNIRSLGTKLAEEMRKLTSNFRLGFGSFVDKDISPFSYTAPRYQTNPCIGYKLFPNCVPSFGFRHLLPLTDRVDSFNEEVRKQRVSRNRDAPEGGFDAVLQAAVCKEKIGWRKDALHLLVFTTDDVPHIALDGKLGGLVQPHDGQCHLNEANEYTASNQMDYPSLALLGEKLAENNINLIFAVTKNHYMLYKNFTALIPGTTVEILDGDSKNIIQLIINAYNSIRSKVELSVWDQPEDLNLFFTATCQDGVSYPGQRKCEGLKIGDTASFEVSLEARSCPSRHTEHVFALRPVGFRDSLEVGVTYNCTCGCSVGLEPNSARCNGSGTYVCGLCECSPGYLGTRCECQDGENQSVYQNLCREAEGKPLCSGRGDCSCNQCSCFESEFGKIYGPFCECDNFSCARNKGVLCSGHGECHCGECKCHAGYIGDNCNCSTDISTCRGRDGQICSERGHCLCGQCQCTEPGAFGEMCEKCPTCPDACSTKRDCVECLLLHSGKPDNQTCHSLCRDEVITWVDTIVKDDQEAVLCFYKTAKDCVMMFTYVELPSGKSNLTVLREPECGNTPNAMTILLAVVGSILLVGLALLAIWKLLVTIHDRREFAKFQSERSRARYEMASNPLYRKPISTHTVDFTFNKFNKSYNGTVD
T4 sequence (P06756 31-889 limits assumed): as the sequence (P06756 31-889 limits assumed) above
T4 sequence (P06756 891-1048 partner limits assumed): as the sequence (P06756 891-1048 partner limits assumed) above
T4 sequence (P26012 43-769): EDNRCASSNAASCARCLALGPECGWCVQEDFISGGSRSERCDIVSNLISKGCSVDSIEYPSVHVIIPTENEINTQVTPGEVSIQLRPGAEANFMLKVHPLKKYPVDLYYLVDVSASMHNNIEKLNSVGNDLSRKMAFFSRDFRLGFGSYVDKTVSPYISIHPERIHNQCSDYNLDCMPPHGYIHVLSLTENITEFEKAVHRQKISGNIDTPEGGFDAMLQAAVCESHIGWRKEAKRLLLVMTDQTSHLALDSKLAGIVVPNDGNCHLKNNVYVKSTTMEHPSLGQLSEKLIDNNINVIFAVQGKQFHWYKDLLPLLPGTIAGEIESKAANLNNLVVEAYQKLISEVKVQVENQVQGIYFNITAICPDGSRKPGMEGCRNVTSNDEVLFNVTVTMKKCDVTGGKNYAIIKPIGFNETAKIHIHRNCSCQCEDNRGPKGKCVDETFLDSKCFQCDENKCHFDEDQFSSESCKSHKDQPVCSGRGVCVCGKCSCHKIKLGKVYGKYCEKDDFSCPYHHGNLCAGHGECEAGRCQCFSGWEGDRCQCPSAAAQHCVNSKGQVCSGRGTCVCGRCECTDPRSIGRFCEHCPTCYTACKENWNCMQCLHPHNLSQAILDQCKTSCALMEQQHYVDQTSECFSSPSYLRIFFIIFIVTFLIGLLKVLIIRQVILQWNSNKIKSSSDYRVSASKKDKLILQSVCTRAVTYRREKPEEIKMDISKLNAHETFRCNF
T1 sequence (P06756 31-889 limits assumed): as the sequence (P06756 31-889 limits assumed) above
T1 sequence (P06756 891-1048 partner limits assumed): as the sequence (P06756 891-1048 partner limits assumed) above
T1 sequence (P18564 22-788): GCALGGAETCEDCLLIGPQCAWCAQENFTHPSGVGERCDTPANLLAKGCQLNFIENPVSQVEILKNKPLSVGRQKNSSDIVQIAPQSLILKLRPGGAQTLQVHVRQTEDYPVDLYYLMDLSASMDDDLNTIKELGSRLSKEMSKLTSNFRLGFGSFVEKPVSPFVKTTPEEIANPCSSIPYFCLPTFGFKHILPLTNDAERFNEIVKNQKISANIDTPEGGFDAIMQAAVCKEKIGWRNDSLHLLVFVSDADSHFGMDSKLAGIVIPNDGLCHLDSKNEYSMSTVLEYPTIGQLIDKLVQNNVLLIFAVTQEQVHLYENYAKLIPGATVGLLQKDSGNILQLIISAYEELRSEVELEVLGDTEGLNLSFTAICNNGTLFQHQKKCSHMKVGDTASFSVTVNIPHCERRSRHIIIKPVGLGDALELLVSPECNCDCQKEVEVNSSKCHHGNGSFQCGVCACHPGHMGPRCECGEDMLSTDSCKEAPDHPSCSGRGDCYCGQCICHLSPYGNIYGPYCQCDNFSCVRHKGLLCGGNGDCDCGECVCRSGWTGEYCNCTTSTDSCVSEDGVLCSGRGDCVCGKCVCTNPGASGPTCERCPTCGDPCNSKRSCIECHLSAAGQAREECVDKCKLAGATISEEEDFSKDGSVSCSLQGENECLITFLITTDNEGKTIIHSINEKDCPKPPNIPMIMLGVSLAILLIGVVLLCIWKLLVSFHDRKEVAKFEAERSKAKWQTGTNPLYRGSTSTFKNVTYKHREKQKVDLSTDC
T5 sequence (P06756 31-889 limits assumed): as the sequence (P06756 31-889 limits assumed) above
T5 sequence (P06756 891-1048 partner limits assumed): as the sequence (P06756 891-1048 partner limits assumed) above
T5 sequence (P05556 21-798): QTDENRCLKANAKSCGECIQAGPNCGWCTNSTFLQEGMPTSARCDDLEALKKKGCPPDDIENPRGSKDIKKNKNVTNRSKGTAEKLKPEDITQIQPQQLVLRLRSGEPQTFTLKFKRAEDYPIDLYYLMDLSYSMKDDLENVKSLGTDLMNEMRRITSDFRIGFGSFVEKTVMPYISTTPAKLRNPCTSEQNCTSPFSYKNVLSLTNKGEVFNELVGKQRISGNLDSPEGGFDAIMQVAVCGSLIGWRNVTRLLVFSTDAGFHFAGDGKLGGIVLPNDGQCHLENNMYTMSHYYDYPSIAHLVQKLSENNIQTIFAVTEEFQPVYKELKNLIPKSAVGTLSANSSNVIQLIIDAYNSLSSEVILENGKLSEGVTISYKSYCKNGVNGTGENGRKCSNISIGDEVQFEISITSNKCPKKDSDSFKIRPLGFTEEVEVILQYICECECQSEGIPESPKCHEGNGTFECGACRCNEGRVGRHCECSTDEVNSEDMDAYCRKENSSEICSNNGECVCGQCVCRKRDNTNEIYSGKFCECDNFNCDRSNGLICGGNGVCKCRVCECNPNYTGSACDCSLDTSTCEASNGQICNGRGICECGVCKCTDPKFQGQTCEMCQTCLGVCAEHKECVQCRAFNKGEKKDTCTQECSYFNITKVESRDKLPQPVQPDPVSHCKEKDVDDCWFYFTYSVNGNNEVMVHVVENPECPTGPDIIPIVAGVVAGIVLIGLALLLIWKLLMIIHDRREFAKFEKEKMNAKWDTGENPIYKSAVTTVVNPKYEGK

Row | IC50 (αvβ6) | IC50 (αvβ3) | IC50 (αvβ5) | IC50 (αvβ8) | IC50 (αvβ1) | SMILES
1 | 10 nM | 100 nM | 31.6 nM | 20 nM | – | CC(C)OCCOc1cccc([C@H](CC(=O)O)CN2CC[C@@H](CCc3ccc4c(n3)NCCC4)C2)c1 [Example 13, (S)-3-(3-(2-Isopropoxyethoxy)phenyl)-4-((R)-3-(2-(5,6,7,8-tetrahydro-1,8-naphthyridin-2-yl)ethyl)pyrrolidin-1-yl)butanoic acid]
2 | – | 251 nM | 63.1 nM | – | – | COC[C@@H](C)Oc1cccc([C@H](CC(=O)O)CN2CC[C@@H](CCc3ccc4c(n3)NCCC4)C2)c1 [Example 12, (S)-3-(3-(((R)-1-methoxypropan-2-yl)oxy)phenyl)-4-((R)-3-(2-(5,6,7,8-tetrahydro-1,8-naphthyridin-2-yl)ethyl)pyrrolidin-1-yl)butanoic acid]
3 | – | 200 nM | – | 15.8 nM | 158 nM | COC(C)(C)COc1cccc([C@H](CC(=O)O)CN2CC[C@@H](CCc3ccc4c(n3)NCCC4)C2)c1 [Example 4, (S)-3-(3-(2-methoxy-2-methylpropoxy)phenyl)-4-((R)-3-(2-(5,6,7,8-tetrahydro-1,8-naphthyridin-2-yl)ethyl)pyrrolidin-1-yl)butanoic acid]
4 | 5.01 nM | 79.4 nM | 39.8 nM | 20 nM | 398 nM | O=C(O)C[C@H](CN1CC[C@@H](CCc2ccc3c(n2)NCCC3)C1)c1cccc(OC[C@H]2CCCO2)c1 [Example 14, (S)-4-((R)-3-(2-(5,6,7,8-Tetrahydro-1,8-naphthyridin-2-yl)ethyl)pyrrolidin-1-yl)-3-(3-(((R)-tetrahydrofuran-2-yl)methoxy)phenyl)butanoic acid]
5 | 3.16 nM | – | 10 nM | – | 158 nM | COCCOc1cccc([C@H](CC(=O)O)CN2CC[C@@H](CCc3ccc4c(n3)NCCC4)C2)c1 [Example 1, (S)-3-(3-(2-methoxyethoxy)phenyl)-4-((R)-3-(2-(5,6,7,8-tetrahydro-1,8-naphthyridin-2-yl)ethyl)pyrrolidin-1-yl)butanoic acid]
6 | 5.01 nM | 100 nM | 39.8 nM | 39.8 nM | 501 nM | O=C(O)C[C@H](CN1CC[C@@H](CCc2ccc3c(n2)NCCC3)C1)c1cccc(OC[C@@H]2CCCO2)c1 [Example 15, (S)-4-((R)-3-(2-(5,6,7,8-tetrahydro-1,8-naphthyridin-2-yl)ethyl)pyrrolidin-1-yl)-3-(3-(((S)-tetra hydrofuran-2-yl)methoxy)phenyl)butanoic acid]
7 | 2.51 nM | 63.1 nM | 15.8 nM | – | 100 nM | CO[C@H](C)COc1cccc([C@H](CC(=O)O)CN2CC[C@@H](CCc3ccc4c(n3)NCCC4)C2)c1 [Example 2, (S)-3-(3-((R)-2-methoxypropoxy)phenyl)-4-((R)-3-(2-(5,6,7,8-tetrahydro-1,8-naphthyridin-2-yl)ethyl)pyrrolidin-1-yl)butanoic acid]
8 | 2.51 nM | – | 15.8 nM | 15.8 nM | 126 nM | CO[C@@H](C)COc1cccc([C@H](CC(=O)O)CN2CC[C@@H](CCc3ccc4c(n3)NCCC4)C2)c1 [Example 3, (S)-3-(3-((S)-2-methoxypropoxy)phenyl)-4-((R)-3-(2-(5,6,7,8-tetrahydro-1,8-naphthyridin-2-yl)ethyl)pyrrolidin-1-yl)butanoic acid]
9 | 12.6 nM | 398 nM | – | 20 nM | – | COCC(COC)Oc1cccc(C(CC(=O)O)CN2CC[C@@H](CCc3ccc4c(n3)NCCC4)C2)c1 (stereo partly drawn) [Example 17, 3-(3-((1,3-Dimethoxypropan-2-yl)oxy)phenyl)-4-((R)-3-(2-(5,6,7,8-tetrahydro-1,8-naphthyridin-2-yl)ethyl)pyrrolidin-1-yl)butanoic acid]
10 | 7.94 nM | 398 nM | – | 20 nM | – | O=C(O)CC(CN1CC[C@@H](CCc2ccc3c(n2)NCCC3)C1)c1cccc(OCC2COC2)c1 (stereo partly drawn) [Example 20, 3-(3-(Oxetan-3-ylmethoxy)phenyl)-4-((R)-3-(2-(5,6,7,8-tetrahydro-1,8-naphthyridin-2-yl)ethyl)pyrrolidin-1-yl)butanoic acid]
11 | – | 316 nM | 63.1 nM | 15.8 nM | 50.1 nM | COCC(C)(C)Oc1cccc([C@H](CC(=O)O)CN2CC[C@@H](CCc3ccc4c(n3)NCCC4)C2)c1 [Example 11]
12 | 7.94 nM | – | – | 100 nM | – | COCCOc1ccc(F)c([C@H](CC(=O)O)CN2CC[C@@H](CCc3ccc4c(n3)NCCC4)C2)c1 [Example 16, (S)-3-(2-Fluoro-5-(2-methoxyethoxy)phenyl)-4-((R)-3-(2-(5,6,7,8-tetrahydro-1,8-naphthyridin-2-yl)ethyl)pyrrolidin-1-yl)butanoic acid]
13 | 10 nM | 158 nM | 63.1 nM | 12.6 nM | – | COCCCOc1cccc(C(CC(=O)O)CN2CC[C@@H](CCc3ccc4c(n3)NCCC4)C2)c1 (stereo partly drawn) [Example 19, 3-(3-(3-Methoxypropoxy)phenyl)-4-((R)-3-(2-(5,6,7,8-tetrahydro-1,8-naphthyridin-2-yl)ethyl)pyrrolidin-1-yl)butanoic acid]
14 | – | 3160 nM | – | – | 251 nM | COC[C@H](C)Oc1cccc(C(CC(=O)O)CN2CC[C@@H](CCc3ccc4c(n3)NCCC4)C2)c1 (single isomer, unassigned) [Example 5]
15 | 5.01 nM | 398 nM | – | 25.1 nM | 200 nM | COCCOc1cc(OCCF)cc(C(CC(=O)O)CN2CC[C@@H](CCc3ccc4c(n3)NCCC4)C2)c1 (stereo partly drawn) [Example 18, 3-(3-(2-Fluoroethoxy)-5-(2-methoxyethoxy)phenyl)-4-((R)-3-(2-(5,6,7,8-tetrahydro-1,8-naphthyridin-2-yl)ethyl)pyrrolidin-1-yl)butanoic acid]
16 | 3.16 nM | 126 nM | 31.6 nM | 20 nM | 200 nM | COCCOc1cc(OCCOC)cc([C@H](CC(=O)O)CN2CC[C@@H](CCc3ccc4c(n3)NCCC4)C2)c1 [Example 8, (S)-3-(3,5-Bis(2-methoxyethoxy)phenyl)-4-((R)-3-(2-(5,6,7,8-tetrahydro-1,8-naphthyridin-2-yl)ethyl)pyrrolidin-1-yl)butanoic acid]
